Laboratory results taken from paper PMC11494653, “Teixobactin “Swapmers” with L Tail Stereochemistry Retain Antibiotic Activity” (The Journal of Organic Chemistry, 2024).
Positions of bridges follow the written chain, without caps; N, C: chain ends. Non-standard residues stand in square brackets, D forms with d. Residues, ends and D or L forms follow the SMILES beside them. Chains are numbered I, II in the order given. NMeF = CN[C@@H](Cc1ccccc1)C(=O)O

Assays:
Type in all cases: cell-based
[1] = system: Bacillus subtilis ATCC 6051; test: microbe, parasite or virus in culture; settings: ATCC 6051, 16 h
Description: (§1) We determined the MIC values of these teixobactin swapmer prodrugs against the Gram-positive bacteria Bacillus subtilis, Staphylococcus epidermidis, methicillin-susceptible Staphylococcus aureus (MSSA), and methicillin-resistant Staphylococcus aureus (MRSA) in a broth microdilution assay as described previously.[9],[10] We used the antibiotic vancomycin as a positive control and the Gram-negative bacterium Escherichia coli as a negative control. The MIC values for Lys10-teixobactin 1, Lys10-teixobactin prodrug 2, Arg10-teixobactin 6, and Arg10-teixobactin prodrug 7 are shown in Table 1 for comparison with the swapmer analogues.
(§2) We performed minimum inhibitory concentration (MIC) assays as previously described.[9] A concise procedure is detailed below.
(§3) Stock solutions of teixobactin analogues were prepared gravimetrically by dissolving an appropriate amount of peptide in 20 mg/mL sterile DMSO. The stock solutions were stored at −20 °C for subsequent experiments.
(§4) Bacillus subtilis (ATCC 6051), Staphylococcus epidermidis (ATCC 14990), methicillin-susceptible Staphylococcus aureus (MSSA) (ATCC 29213), and Escherichia coli (ATCC 10798) were cultured from glycerol stocks in Mueller-Hinton broth containing 0.002% polysorbate 80 overnight in a shaking incubator at 37 °C. Methicillin-resistant Staphylococcus aureus (MRSA) (ATCC 700698) was cultured from a glycerol stock in brain hearth infusion broth containing 0.002% polysorbate 80 overnight in a shaking incubator at 37 °C. After overnight incubation, each culture was diluted with the appropriate media (containing 0.002% polysorbate 80) to 1 × 10^6 colony-forming units (CFU)/mL as previously described.[12],[15],[16] Briefly, we have previously determined the CFU/mL for each bacterium at OD600 = 0.075 for 200 μL of bacterial culture in a 96-well plate. The OD600 of each overnight culture was determined, and then each culture was diluted to OD600 = 0.075. Cultures were further diluted to achieve 1 × 10^6 CFU/mL solutions.
(§5) Aliquots of the 20 mg/mL peptide stock solutions were diluted to make a 64 μg/mL solution in Mueller-Hinton broth containing 0.002% polysorbate 80 and a 64 μg/mL solution in brain heart infusion broth containing 0.002% polysorbate 80. The solutions were mixed by pipetting to ensure homogeneity. A 200-μL aliquot of a 64 μg/mL solution was transferred to a 96-well plate. 2-fold serial dilutions were made with media containing 0.002% polysorbate 80 across the 96-well plate to achieve a final volume of 100 μL in each well (initial concentrations ranging from 64 to 0.0625 μg/mL). A 100-μL aliquot of a 1 × 10^6 CFU/mL bacterial solution was added to each well in the series, resulting in final bacterial concentrations of 5 × 10^5 CFU/mL in each well. As 100 μL of bacteria were added to each well, the concentration of peptide was also diluted 2-fold (final concentrations ranging from 32 μg/mL to 0.03125 μg/mL). Each plate was covered with a lid and incubated at 37 °C for 16 h. The optical density measurements were measured at 600 nm using a 96-well UV–vis plate reader (MultiSkan GO, Thermo Scientific). The MIC values were taken as the lowest concentration that had no bacterial growth. MIC assays for each compound were performed in triplicate to ensure reproducibility.

[2] = system: Escherichia coli ATCC 10798; test: microbe, parasite or virus in culture; settings: ATCC 10798, 16 h
Description: as §1, §2, §3, §4, §5

[3] = system: Staphylococcus aureus (MRSA) ATCC 700698; test: microbe, parasite or virus in culture; settings: ATCC 700698, 16 h
Description: as §1, §2, §3, §4, §5

[4] = system: Staphylococcus aureus (MSSA) ATCC 29213; test: microbe, parasite or virus in culture; settings: ATCC 29213, 16 h
Description: as §1, §2, §3, §4, §5

[5] = system: Staphylococcus epidermidis ATCC 14990; test: microbe, parasite or virus in culture; settings: ATCC 14990, 16 h
Description: as §1, §2, §3, §4, §5

[6] = system: all bacteria tested; test: MIC broth microdilution assay, summary over all bacteria; settings: concentration range tested up to 32 μg/mL
Description: as §1, §2, §3
as §4, with “After overnight incubation, each culture was diluted with the appropriate media (containing 0.002% polysorbate 80) to 1 × 10^6 colony-forming units (CFU)/mL as previously described.[12],[15],[16]” left out, “Cultures were further diluted to achieve 1 × 10^6 CFU/mL solutions.” left out
Aliquots of the 20 mg/mL peptide stock solutions were diluted to make a 64 μg/mL solution in Mueller-Hinton broth containing 0.002% polysorbate 80 and a 64 μg/mL solution in brain heart infusion broth containing 0.002% polysorbate 80. […] The optical density measurements were measured at 600 nm using a 96-well UV–vis plate reader (MultiSkan GO, Thermo Scientific). […]

MIC Bacillus subtilis ATCC 6051 [1]: >32 µg/mL
MIC Escherichia coli ATCC 10798 [2]: >32 µg/mL
MIC Staphylococcus aureus (MRSA) ATCC 700698 [3]: >32 µg/mL
MIC Staphylococcus aureus (MSSA) ATCC 29213 [4]: >32 µg/mL
MIC Staphylococcus epidermidis ATCC 14990 [5]: >32 µg/mL
SMILES: CC[C@H](C)[C@H](NC(=O)[C@H](CCC(N)=O)NC(=O)[C@H](Cc1ccccc1)NC)C(=O)N[C@@H](CO)C(=O)N[C@H](C(=O)N[C@@H](CCC(N)=O)C(=O)N[C@H](C(=O)OC[C@H](N)C(=O)N[C@H]1C(=O)N[C@@H](C)C(=O)N[C@@H](CCCNC(=N)N)C(=O)N[C@@H]([C@@H](C)CC)C(=O)O[C@H]1C)[C@@H](C)CC)[C@@H](C)CC [compound 9, N-Me-Phe0,Gln1,Ile4,Gln5,[Ile6-O-Ser7],Arg10-teixobactin] (I: H-[NMeF]QISIQI / II: H-S[dT]ARI; ester I:C-II:1, II:2-II:C)
antibiotic activity in words against all bacteria tested [6]: completely inactive
